According to ChEMBL document CHEMBL3507680, “University of Dundee, Gates Library screen for HepG2 cell viability”:

Assay: Human HepG2 cell viability assay in 384 well format
Assay type: toxicity, cell-based
Set-up: dose 125 nL, time 70.5 hour; concentration not given beside the values
Settings: HepG2 cells, read-out: Inhibition

Row | Compound | cytotoxicity at 70.5 h
1 | Cc1cc(CN2CCC(CNS(=O)(=O)c3ccccc3F)CC2)c(C)o1 | 37.7%
2 | CCOc1ccc(S(=O)(=O)NCCc2ccc(N(C)C)cc2)cc1C | -3.6%
3 | CCOc1ccc(S(=O)(=O)NCCCc2ccc(N(C)C)cc2)cc1C | -1.63%
4 | O=C(CCc1ccccc1)NCC1CCN(Cc2ccccc2)CC1 | 0.0668%
5 | O=C(Cc1ccccc1Cl)NCC1CCN(Cc2ccsc2)CC1 | -5.31%
6 | O=C(NCc1ccccc1)NCC1CCN(Cc2ccsc2)CC1 | -7.87%
7 | O=C(NCC1CCN(c2ncccn2)CC1)c1cnccn1 | -12.6%
8 | CS(=O)(=O)N1CCC(CNC(=O)C2CCC2)CC1 | 40.8%
9 | CS(=O)(=O)N1CCC(CNC(=O)C2CCCC2)CC1 | -16%
10 | COC(=O)N1CCC(CNC(=O)C2CCN(S(C)(=O)=O)CC2)CC1 | -19.3%
11 | COc1ncccc1C(=O)NCCn1nc(C)ccc1=O | -8.68%
12 | O=C(CC1CCCC1)NCCS(=O)(=O)N1CCN(c2ccccn2)CC1 | -13%
13 | O=C(NCCS(=O)(=O)N1CCN(c2ncccn2)CC1)C1CC1 | 16.5%
14 | CCc1ccc(S(=O)(=O)NCCOc2ccc3nnc(C)n3n2)s1 | -11.7%
15 | CC(=O)c1cccc(NC(=O)Cn2cnc(-c3ccccc3)cc2=O)c1 | -3%
16 | CS(=O)(=O)N1CCN(c2ccc(Nc3ccccn3)nn2)CC1 | -6.91%
17 | CC(=O)Nc1ccc(SCCCC(=O)NCC2CCCO2)nn1 (stereo unspecified) | -11.3%
18 | O=C(CCCSc1ccc(NC(=O)C2CC2)nn1)NCC1CCCO1 (stereo unspecified) | -14.1%
19 | COc1cc(OC)cc(C(=O)NCC(c2cccn2C)N2CCCC2)c1 (stereo unspecified) | 30.6%
20 | COc1cccc(C(=O)NCC(c2cccn2C)N2CCCC2)c1OC (stereo unspecified) | 3.39%
21 | COc1ccc(S(=O)(=O)NCC(c2cccn2C)N(C)C)cc1F (stereo unspecified) | -8.8%
22 | Cc1nc(NC(=O)c2c3c(nn2C2CCS(=O)(=O)C2)CCC3)sc1C (stereo unspecified) | 16.2%
23 | Cc1nnc(C2CCN(C(=O)c3cnc4ccccc4n3)CC2)s1 | -2.76%
24 | O=S(=O)(NCCNc1cc(-n2cccn2)ncn1)c1cccs1 | 12.1%

Row | Compound | cytotoxicity at 70.5 h
25 | CC(C)(C)c1csc(CN2CCN(S(=O)(=O)c3cccnc3)CC2)n1 | -14.8%
26 | O=S(=O)(c1cccnc1)N1CCN(Cc2nc(-c3ccco3)cs2)CC1 | 0.0264%
27 | O=C(c1ccsc1)N1CCC(c2nnc(C3CC3)o2)CC1 | 28.3%
28 | Cn1c(-c2ccccc2)nn(CCNS(=O)(=O)c2ccccc2Cl)c1=O | 0.396%
29 | Cn1c(-c2cccs2)nn(CCNS(=O)(=O)c2ccccc2Cl)c1=O | -1.9%
30 | COCCNC(=O)NCCS(=O)(=O)N1CCN(c2cccc(C)c2)CC1 | -12.5%
31 | O=S(=O)(c1c(F)cccc1F)N1CCC(Cn2cccn2)CC1 | -11.8%
32 | O=S(=O)(NCC1(c2cccs2)CCCC1)c1cccnc1 | -4.26%
33 | O=S(=O)(NCC1(c2cccs2)CCOCC1)c1cccnc1 | -6.99%
34 | O=C(CSC1CCCC1)N1CCN(C(=O)C2CC2c2ccccc2)CC1 (stereo unspecified) | -3.24%
35 | Cn1nnnc1SCC(=O)N1CCN(C(=O)C2CC2c2cccs2)CC1 (stereo unspecified) | 1.49%
36 | O=C(NCc1ccc(F)cc1)NCC(O)(c1ccco1)C1CC1 (stereo unspecified) | 6.32%
37 | COC(=O)c1ccc(C(=O)NCC(O)c2cccn2C)cc1 (stereo unspecified) | 48.7%
38 | Cn1cccc1C(O)CNC(=O)COc1ccc(Cl)cc1Cl (stereo unspecified) | -12%
39 | O=C(NCC(O)c1ccsc1)Nc1cccs1 (stereo unspecified) | 25.4%
40 | Cc1ccsc1C(O)CNC(=O)Cc1ccc(F)cc1 (stereo unspecified) | 25%
41 | Cc1cc(S(=O)(=O)NCC(O)c2sccc2C)ccc1F (stereo unspecified) | -1.45%
42 | COc1ccccc1OCC(=O)NCC(O)(c1cccs1)C1CC1 (stereo unspecified) | -5.23%
43 | COc1ccc(CC(C)(O)CNC(=O)c2cccs2)cc1 (stereo unspecified) | -15.5%
44 | COc1ccc(CC(C)(O)CNC(=O)NCc2cccs2)cc1 (stereo unspecified) | -13.9%
45 | O=C(CN1C(=O)CCC1=O)NCC1(O)CCc2ccccc21 (stereo unspecified) | 1.38%
46 | O=C(Cn1c(=O)oc2ccccc21)NCC1(O)CCc2ccccc21 (stereo unspecified) | -6.07%
47 | CC(O)(CNC(=O)c1c(F)cccc1Cl)C1CC1 (stereo unspecified) | -14.4%
48 | CCc1nnc(NCc2cccc(OC)c2OC)o1 | 8.49%

Row | Compound | cytotoxicity at 70.5 h
49 | Cc1ccnc(NCc2cn3nc(C)sc3n2)n1 | 1.46%
50 | COc1ccc(-n2ncc(C(C)NC3Cc4ccccc4C3)c2C)cc1 (stereo unspecified) | 5.61%
51 | CCc1cc(CN(C)Cc2nc(-c3ccc(OC)cc3F)oc2C)on1 | -5.4%
52 | Cc1nc(N2CCCN(C(=O)c3ccsc3)CC2)c2cnn(C)c2n1 | -2.94%
53 | CCCNC(=O)NC(=O)CNC(C)(C)c1ccc2c(c1)OCO2 | -0.993%
54 | Cn1cc(C(=O)N2CCN(c3ncccn3)CC2)ccc1=O | -2.44%
55 | CC(c1nc(C2CC2)no1)N1CCN(CCN2CCCC2=O)CC1 (stereo unspecified) | -0.249%
56 | O=C(CC1CCCO1)N1CCCN(c2cccnn2)CC1 (stereo unspecified) | -3.32%
57 | CCc1cnc(CN(C)C2CCN(Cc3nnc(C4CC4)n3C)C2)o1 (stereo unspecified) | -2.36%
58 | CC(C)(NCC(=O)NC(=O)NC1CC1)c1ccc2c(c1)OCO2 | -3.04%
59 | Cc1ccc(N2CCCN(C(=O)C3CCCO3)CC2)nn1 (stereo unspecified) | 4.49%
60 | CCc1noc(C(C)N2CCN(CCN3CCCC3=O)CC2)n1 (stereo unspecified) | -2.78%
61 | COc1cccc(N2CCC(CNCc3cccc(C#N)c3)C2)c1 (stereo unspecified) | 9.04%
62 | Cc1cnn(CC2CCCN2Cc2nnc(-c3ccccc3)o2)c1 (stereo unspecified) | -4.64%
63 | CC(C)n1cc(CN2CCCN(C(=O)C3CCOC3)CC2)cn1 (stereo unspecified) | 19.9%
64 | Cc1nc(C)n(CC2CCCN(Cc3ccccc3C#N)C2)n1 (stereo unspecified) | 22.8%
65 | COc1cc(CNCc2c(C)nn(CC(C)C)c2N(C)C)ccn1 | 27.3%
66 | CC(C)n1cc(CN2CCCN(C(=O)CN3CCCC3=O)CC2)cn1 | 58%
67 | CC(C)n1cc(CN2CCCN(C(=O)C(C)n3cncn3)CC2)cn1 (stereo unspecified) | 3.68%
68 | Cc1cnn(CC(=O)N2CCCN(Cc3cnn(C(C)C)c3)CC2)c1 | -0.435%
69 | CSCCC(=O)N1CCCN(Cc2cnn(C(C)C)c2)CC1 | 34.5%
70 | CC(C)n1cc(CN2CCCN(C(=O)COC3CCCC3)CC2)cn1 | 1.39%
71 | Cc1nn(CC(C)C)c(N(C)C)c1CNCc1ccc(CO)c(F)c1 | 1.46%
72 | CC(NCc1ccc(F)cc1)c1ccc2[nH]c(=O)[nH]c2c1 (stereo unspecified) | 0.625%

Row | Compound | cytotoxicity at 70.5 h
73 | Cc1cnn(C2CCCN(C(=O)CCc3cnn(C)c3)C2)c1 (stereo unspecified) | -4.01%
74 | Cc1nc(C)n(CC2CCCN(Cc3ccc4c(c3)OCCO4)C2)n1 (stereo unspecified) | -1.48%
75 | CC(C)c1nc(C2CCCN(C(=O)CCCn3ccnc3)C2)no1 (stereo unspecified) | -0.752%
76 | CCOc1ccc(C(=O)N2CCCC2c2c(C)nn(C)c2Cl)cn1 (stereo unspecified) | -1.78%
77 | Brc1cccc(-c2noc(CN3CCOCC3)n2)c1 | -2.61%
78 | COc1ccc(NC(=O)C(C)n2cncn2)cn1 (stereo unspecified) | -2.08%
79 | CC(C(=O)NCc1ccc(N2CCCC2)nc1)n1cncn1 (stereo unspecified) | -0.612%
80 | CC1COCCN1Cc1nc(-c2ccsc2)no1 (stereo unspecified) | -3.54%
81 | CC(C(=O)Nc1ccc(N2CCCC2)nc1)n1cccn1 (stereo unspecified) | -0.411%
82 | Cc1cnn(C2CCCN(C(=O)Cc3ccc(C)s3)C2)c1 (stereo unspecified) | -0.137%
83 | Cc1cnn(C2CCCN(C(=O)CCc3ccncc3)C2)c1 (stereo unspecified) | -0.811%
84 | CC(C)n1cc(CN2CCCN(C(=O)C(C)n3cccn3)CC2)cn1 (stereo unspecified) | -2.97%
85 | Cc1nc(C)n(CC2CCCN(Cc3cccc(C(N)=O)c3)C2)n1 (stereo unspecified) | -1.85%
86 | Cc1nc(C)n(CC2CCCN(Cc3cc(C#N)ccc3F)C2)n1 (stereo unspecified) | 0.508%
87 | CC(C)n1cc(CN2CCCN(C(=O)C3CCCN3C)CC2)cn1 (stereo unspecified) | -3.1%
88 | Cc1nn(C)c(C)c1C1CCCN1C(=O)c1ccc2c(c1)OCCO2 (stereo unspecified) | -7.1%
89 | CC(C)c1nc(C2CCCN(C(=O)CCc3cscn3)C2)no1 (stereo unspecified) | -2.82%
90 | Cc1nn(C)c(Cl)c1C1CCCN1C(=O)c1ccc(C(N)=O)cn1 (stereo unspecified) | 54.9%
91 | Cc1nn(C)c(Cl)c1C1CCCN1C(=O)c1ccncc1 (stereo unspecified) | 0.652%
92 | CCOc1ccc(CNC(C)c2ccc3[nH]c(=O)[nH]c3c2)cc1 (stereo unspecified) | 1.32%
93 | Cc1ccccc1C1(C(=O)NCCN2CCC(C)CC2)CCOCC1 | 17.6%
94 | COc1ccccc1C1(C(=O)NCCN2CCCCC2)CCOCC1 | 15.9%
95 | CC(C)(C)c1nnc(CN2CCCC2Cn2cncn2)o1 (stereo unspecified) | -11.3%
96 | Cc1cccc(C(=O)NCc2cccnc2N(C)C)n1 | 1.42%

Row | Compound | cytotoxicity at 70.5 h
97 | Cc1ccc(N2CCCC(NCc3nnc(-c4ccco4)o3)C2)nn1 (stereo unspecified) | -13.2%
98 | Cc1ncsc1C(=O)N(Cc1ccccc1)C1CC1 | -19.8%
99 | c1ccc(-c2nnc(CNC3CCCN(c4cccnn4)C3)o2)cc1 (stereo unspecified) | -16.9%
100 | COc1ncccc1CNC(=O)c1cc(Cl)ccn1 | -8.01%
101 | O=C(O)c1cccc(S(=O)(=O)N2CCOc3ccccc32)c1 | -12.8%
102 | CN(C)c1cc(CNC(=O)Nc2ccc(N3CCCC3)nc2)ccn1 | 1.53%
103 | CCC(NC(=O)C1CC1)c1ccccc1OCC(=O)N1CCCC1 (stereo unspecified) | -6.4%
104 | CCC(NC(=O)COC)c1ccccc1OCC(=O)N1CCCC1 (stereo unspecified) | -4.2%
105 | COc1ncccc1CNC(=O)c1ccc(C)[nH]c1=O | 12.6%
106 | CN(C)c1ccc(CNC(=O)Nc2ccc(S(C)(=O)=O)nc2)cc1 | -7.69%
107 | Cc1cccc(NC(=O)C2CSCN2C(=O)c2cnccn2)c1C (stereo unspecified) | -7.92%
108 | Cc1cnn(C2CCCN(C(=O)c3ccc(-n4cnnn4)cc3)C2)c1 (stereo unspecified) | 0.981%
109 | Cc1ccc(NC(=O)C2CSCN2C(=O)c2cccnc2)c(C)c1 (stereo unspecified) | 6.06%
110 | c1ccc(-n2ccc(CNC3CCc4ncnn4C3)n2)cc1 (stereo unspecified) | -5.75%
111 | c1ccc(Cc2nnc(CN3CCCC(Cn4cncn4)C3)o2)cc1 (stereo unspecified) | -13.3%
112 | Cc1ccc(-c2noc(CN3CCn4c(nnc4C4CC4)C3)n2)cc1 | -16%
113 | c1cncc(-c2noc(CN3CCn4c(nnc4C4CC4)C3)n2)c1 | -1.9%
114 | Cc1noc(C)c1S(=O)(=O)NC(=O)COc1cccc(C(C)C)c1 | -2.21%
115 | Cc1noc(C)c1S(=O)(=O)NC(=O)COc1ccc(C(C)C)cc1 | -9.11%
116 | COc1c(C)cc(CNCc2ccnc(N3CCOCC3)c2)cc1C | 2.82%
